{"source": "patent US11045519B2", "about": "“Arginine-rich polypeptide compositions and methods of using same” (UNM Rainforest Innovations, priority 2017, dated 2021)", "key": {"HPV16 PsVs": {"test_system": "HPV16 PsVs", "test": "Post-attachment and time-course HPV16 PsV infection of HaCaT cells", "format": "cell-based", "procedure": "FIG. 6. PolyR inhibits HPV16 PsV infection at pre-attachment and post-attachment stages. (A) Infection of HaCaT cells with HPV16. Semi-confluent HaCaT cells were left untreated with polyR (H16) or exposed to HPV16 PsV 1 h before (polyR/H16) or one hour after […] (H16/PolyR) treatment, were subjected to infectivity measurements after a 24-hour incubation at 37° C. (as described in FIG. 1). (B) Time-course experiments of HPV infection in the absence or presence of polyR. Untreated control cells were infected with HPV16 PsV (HPV16). HaCaT cells were treated with 1 μM polyR before (+1 h polyR/HPV16), concurrently (0 h polyR/HPV16) or at one hour, two hours, four hours, six hours, or eight hours post-attachment of HPV16 PsVs. Infection was scored at 24 hours post HPV attachment and shift to 37° C.\nFIG. 18. PrS post-attachment effect on HPV infection. HaCaT cell were incubated with 500 vge/cell HPV PsVs at RT for one hour before addition of 1.5 μM PrS complexed with 0.1% HMW HA or with 3 μM LMW HA. Infection scored 24 after infection as described in FIG. 12.\nFIG. 20. Time-course experiments of HPV infection in the presence of PrS or HA:PrS complex. (A) PrS; (B) HA:PrS complex. HaCaT cells were treated with 2 μM PrS or 2 μM PrS associated with 0.1% HMW HA at indicated times post-attachment of HPV16 PsVs, and infection was scored 24 hours after infection as described in FIG. 12. Time-point zero represents initial PsV inoculation.\nThe data above show clearly that polyR can inhibit HPV binding to cells and infection, but that polyR cannot displace HPV after bound to cells. To determine whether polyR can alter HPV infectivity if it is present after HPV is bound to cells, the infection levels of virus-exposed cells that are either pre-treated with polyR before virus binding, polyR-treated after HPV binding, or untreated with polyR were compared. […] This indicates a second mechanism whereby polyR can block HPV infection after virus is bound to cells.\nNext, the effectiveness of polyR treatment in blocking infection when added at increasing times post HPV binding to cells was tested. This time-course experiment confirmed that polyR affects post-attachment stages of virus infection. HaCaT cells were treated with polyR one hour prior to virus exposure, concurrently with virus exposure, and at increasing times after virus was bound and unbound virus was removed. Infection efficiency was measured after a 24-hour incubation at 37° C. The cells infected with HPV16 PsV in the absence of polyR (FIG. 6B, HPV16) was considered as 100% infection efficiency.\nTo investigate PrS post-attachment effect on infection, HaCaT cell were exposed with HPV PsVs at room temperature for one hour before addition of PrS complexed with heavy molecular weight (HMW) HA or with low molecular weight (LMW) HA.\nTime-course experiments in which HaCaT cells were exposed to PrS or PrS:HA complex at various times after attachment with HPV16 PsVs confirmation this mechanism."}, "[1]": {"test_system": "HPV16 pseudovirions (PsVs)", "test": "HPV16 PsV luciferase infectivity assay, HaCaT cells pretreated with peptide", "format": "cell-based", "conditions": "24 h", "description": "HaCaT cells were cultured in complete growing medium (CM; Dulbecco's modified Eagle's medium nutrient mixture F-12 HAM (Sigma-Aldrich, St. Louis, Mo.)) supplemented with 10% fetal bovine serum (FBS), amino acids (Sigma-Aldrich, St. Louis, Mo.), 2 mM L-glutamine, 100 U/ml penicillin and 1 μg/ml streptomycin (Sigma-Aldrich, St. Louis, Mo.), as previously described (Patterson et al., 2005. J Virol 79:6838-6847). Semi-confluent cells were pretreated for 30 minutes with arginine-rich peptides dissolved in CM (6 μM gp91dstat, gp91dstat (scramble), R9, and TAT, or 3 polyR) before the exposure to HaCaT cells and 300 vge/cell HPV16 pseudovirions (PsVs) packaging a luciferase reporter plasmid. Infectivity was scored after 24 hours of incubation at 37° C. (i.e., post infection) by Lumat LB9501 (Berthold Technologies GmbH & Co KG, Bad Wildbad, Germany) equipment, using the luciferase assay kit (Promega, Madison, Wis.) according to manufacturer's specification. Raw data were normalized to total cellular protein concentration. Graph summarizes triplicate treatments; error bars represent SEM.\nFifty percent inhibitory concentration (IC50) of HPV16 PsV infection of HaCaT cells by the compounds. For generation of an inhibitory concentration 50 (IC50) curves, cells were pretreated with the indicated concentration of arginine-rich peptides prior to HPV16 PsV exposure. Infectivity was scored after 24 hours of incubation at 37° C. and the data from two independent duplicate experiments were pooled and analyzed using non-linear regression (curve fit) function of PRISM software (GraphPad Software, Inc., LaJolla, Calif.).\nSemi-confluent HaCaT cells maintained in CM, were pretreated for one hour with PrS dissolved in CM at the 0-5.8 μM concentrations before exposure to HPV16 PsVs (350 vge/cell). Infectivity was scored after 24 hours of incubation at 37° C. using a luminometer (Lumat LB9501, Berthold GmbH & Co., Bad Wildbad, Germany) and luciferase assay (Promega, Madison, Wis.) according to manufacturer's specification. Raw data were normalized to total cellular protein concentration.\nFor generation of an inhibitory concentration 50 (IC50) curve for PrS inhibition, data from two independent duplicate experiments was pooled and analyzed using the non-linear regression (curve fit) function of PRISM (GraphPad Software, Inc., La Jolla, Calif.).\n3 μM PrS incubated for one hour at room temperature with 2 mg/ml high or low molecular weight HA in CM, prior to the addition to HaCaT cells. 350 vge/cell HPV16 PsVs were used for infection of cells in the presence or absence of PrS or HA:PrS complex. Infection was scored after 24 hours as described in FIG. 12.\nHaCaT cells were pretreated with 6 μM concentrations of gp91dstat, gp91dstat (scramble), R9, or TAT, or 3 μM polyR. After 30 minutes of incubation at 37° C., cells were infected with HPV16 pseudovirions (PsVs) at a dose of 300 viral genome equivalents (vge)/cell, and the relative infectivity was quantified after 24 hours compared to infection in untreated cells (FIG. 1). Each treatment was performed in triplicate.\nTo evaluate the anti-HPV activity of PrS, HaCaT cells, a keratinocyte-derived cell line, was used as a model for analysis of HPV infection. […]\nInfections were initiated using Luciferase-expressing HPV16 PsVs that were produced, isolated, and quantified as described previously (Surviladze et al., 2012. PLoS Pathogens 8: e1002519; Campos S K and Ozbun M A, 2009. PloS One 4:e4463). […]"}, "recombinant His-furin": {"molecular_target": "T1, recombinant His-furin (Homo sapiens, UniProt P09958)", "T1 construct": "His", "T1 sequence (P09958 108-794)": "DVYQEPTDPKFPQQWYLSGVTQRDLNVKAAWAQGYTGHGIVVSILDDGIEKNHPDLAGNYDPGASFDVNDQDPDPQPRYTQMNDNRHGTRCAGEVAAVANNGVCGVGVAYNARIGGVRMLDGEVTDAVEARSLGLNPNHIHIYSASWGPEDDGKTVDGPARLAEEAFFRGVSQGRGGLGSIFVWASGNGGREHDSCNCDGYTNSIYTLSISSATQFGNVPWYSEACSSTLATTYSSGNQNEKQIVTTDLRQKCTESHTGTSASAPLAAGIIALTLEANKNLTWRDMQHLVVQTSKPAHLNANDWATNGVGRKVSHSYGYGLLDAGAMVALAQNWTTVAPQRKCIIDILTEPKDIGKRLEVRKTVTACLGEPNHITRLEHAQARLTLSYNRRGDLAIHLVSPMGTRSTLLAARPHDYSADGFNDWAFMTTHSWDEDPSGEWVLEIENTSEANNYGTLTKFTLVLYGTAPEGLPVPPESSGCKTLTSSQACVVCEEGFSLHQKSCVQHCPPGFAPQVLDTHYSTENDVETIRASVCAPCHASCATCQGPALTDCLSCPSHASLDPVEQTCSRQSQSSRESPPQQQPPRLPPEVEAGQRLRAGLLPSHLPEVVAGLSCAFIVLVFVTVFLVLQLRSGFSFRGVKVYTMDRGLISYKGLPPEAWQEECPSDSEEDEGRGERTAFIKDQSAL", "test": "Furin cleavage of HPV16 L2 capsid protein (immunoblot)", "format": "biochemical", "conditions": "1 μM, 3 nM His-furin, 2 h", "procedure": "FIG. 9. PolyR inhibits HPV16 L2 protein cleavage by furin and induces accumulation of internalized virus particles in late endosomal fraction. (A) Equal amount of HPV16 diluted in 50 μl furin assay buffer (1 mM CaCl2), 100 mM HEPES, 0.5% Triton X-100, 1 mM β-mercaptoethanol) was loaded into six tubes, […], in the presence of 1.3 μM furin inhibitor1 (Merck Millipore Corp., Burlington, Mass.), or 1 μM polyR. Samples were mixed with SDS-PAGE sample buffer and boiled before fractionation on 9% gel. Proteins were transferred onto PVDF membranes and after blocking, incubated with affinity-purified rabbit anti-HPV16 polyclonal antibody. Secondary donkey anti-rabbit horseradish peroxidase-coupled antibody was used for detection of HPV16 capsid proteins. (B) HaCaT cells grown on coverslips were incubated with HPV16 PsVs for one hour at 37° C. to initiate virus binding (and partial internalization) before adding 1 μM polyR and further incubated for seven hours. […]\nCleavage of the L2 minor capsid protein by the cellular pro-protein convertase, furin, is an essential step in infectious entry of HPVs. […] After two hours of incubation, HPV16 cleavage was assessed by immunoblotting using anti-HPV 16 polyclonal antibody. […]"}}}
{"substance": "poly-L-arginine [polyR]", "values": [{"measurement": "inhibition of HPV16 infection", "setting": "HPV16 PsVs; 1 μM, added 1 h before virus exposure", "value": "> 95", "unit": "%"}, {"measurement": "inhibition of HPV16 infection", "setting": "HPV16 PsVs; 1 μM, added 1 h to 2 h post HPV binding", "value": "Strong infection inhibition"}, {"measurement": "reduction in HPV infection", "setting": "HPV16 PsVs; 1 μM, added 4 h post infection", "value": "approximately 75%"}, {"measurement": "inhibition of HPV16 infection", "setting": "HPV16 PsVs; 1 μM, added 6 h to 8 h post infection", "value": "Only mild inhibition"}, {"measurement": "inhibition of HPV16 infection", "setting": "HPV16 PsVs; 1 μM, added simultaneously with HPV (0 h)", "value": "same magnitude of infection inhibition"}, {"measurement": "inhibition of infection when added after virus binding versus before", "setting": "HPV16 PsVs; 2 μM, 1 h after versus 1 h before HPV16 PsV, 24 h", "value": "as effective at inhibiting HPV infection when added after virus was bound to cells as it was when added prior to virus exposure"}, {"measurement": "inhibition of HPV16 PsV infection", "setting": "[1]; 3 μM, 30 min pretreatment of HaCaT cells, 300 vge/cell", "value": "> 98", "unit": "%"}, {"measurement": "IC50", "setting": "[1]; pretreatment before PsV exposure, two independent duplicate experiments, read-out: IC50 of HPV16 PsV infection of HaCaT cells", "value": 19, "unit": "nM"}, {"measurement": "furin cleavage of L2 capsid protein", "setting": "recombinant His-furin", "value": "inhibited cleavage of the L2 capsid protein"}]}
